# PubChem BioAssay AID1963972 (Molecular Pharmacology Branch, DTP, NCI, 2024)
# System: 945468-187-T-J2-PDC spheroids viability
# Test: Anticancer human tumor 945468-187-T-J2-PDC patient-derived rectal carcinoma cell line growth inhibition [PI3K]
# Settings: spheroids with HUVEC and MSC; for IC50: curve of first compound; for viability, T/C: stronger effect = lower value
# Method in brief: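 Stroma-containing spheroids: tumor line, pooled-donor HUVEC, hMSC. Treatments: targeted agents with PI3K inhibitors. Dosing: clinically relevant, half-log spacing, 10 microM ceiling without known Cmax. Read-out: cell viability.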
# [1] = second compound 0.0316 µM, first compound 0.0316 µM
# [2] = second compound 0.0316 µM, first compound 0.1 µM
# [3] = second compound 0.1 µM, first compound 0.0316 µM
# [4] = second compound 0.1 µM, first compound 0.1 µM
# [5] = second compound 0.316 µM, first compound 0.0316 µM
# [6] = second compound 0.316 µM, first compound 0.1 µM
# [7] = second compound 1 µM, first compound 0.0316 µM
# [8] = second compound 1 µM, first compound 0.1 µM
# [9] = second compound 3.16 µM, first compound 0.0316 µM
# [10] = second compound 3.16 µM, first compound 0.1 µM
# [11] = second compound 10 µM, first compound 0.0316 µM
# [12] = second compound 10 µM, first compound 0.1 µM
# 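Further: spheroids exposed to compounds for seven days before reading.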
structure (smiles),measurement,setting,value
CC(=O)c1c(C)c2cnc(Nc3ccc(N4CCNCC4)cn3)nc2n(C2CCCC2)c1=O + CC(Nc1ncnc2nc[nH]c12)c1cc2cccc(Cl)c2c(=O)n1-c1ccccc1,IC50,second compound 0.0316 µM,> 0.1 µM
same,IC50,second compound 0.1 µM,> 0.1 µM
same,IC50,second compound 0.316 µM,> 0.1 µM
same,IC50,second compound 1 µM,> 0.1 µM
same,IC50,second compound 3.16 µM,> 0.1 µM
same,IC50,second compound 10 µM,> 0.1 µM
same,"viability, T/C","second compound 0.0316 µM, first compound 0.000316 µM",104%
same,"viability, T/C","second compound 0.0316 µM, first compound 0.001 µM",80%
same,"viability, T/C","second compound 0.0316 µM, first compound 0.00316 µM",101%
same,"viability, T/C","second compound 0.0316 µM, first compound 0.01 µM",100%
same,"viability, T/C",[1],90%
same,"viability, T/C",[2],122%
same,"viability, T/C","second compound 0.1 µM, first compound 0.000316 µM",98.9%
same,"viability, T/C","second compound 0.1 µM, first compound 0.001 µM",101%
same,"viability, T/C","second compound 0.1 µM, first compound 0.00316 µM",89.4%
same,"viability, T/C","second compound 0.1 µM, first compound 0.01 µM",80.3%
same,"viability, T/C",[3],104%
same,"viability, T/C",[4],101%
same,"viability, T/C","second compound 0.316 µM, first compound 0.000316 µM",82.3%
same,"viability, T/C","second compound 0.316 µM, first compound 0.001 µM",108%
same,"viability, T/C","second compound 0.316 µM, first compound 0.00316 µM",103%
same,"viability, T/C","second compound 0.316 µM, first compound 0.01 µM",98.4%
same,"viability, T/C",[5],113%
same,"viability, T/C",[6],88.7%
same,"viability, T/C","second compound 1 µM, first compound 0.000316 µM",91.2%
same,"viability, T/C","second compound 1 µM, first compound 0.001 µM",103%
same,"viability, T/C","second compound 1 µM, first compound 0.00316 µM",85.4%
same,"viability, T/C","second compound 1 µM, first compound 0.01 µM",89.8%
same,"viability, T/C",[7],90.7%
same,"viability, T/C",[8],109%
same,"viability, T/C","second compound 3.16 µM, first compound 0.000316 µM",87.8%
same,"viability, T/C","second compound 3.16 µM, first compound 0.001 µM",87%
same,"viability, T/C","second compound 3.16 µM, first compound 0.00316 µM",102%
same,"viability, T/C","second compound 3.16 µM, first compound 0.01 µM",99.5%
same,"viability, T/C",[9],111%
same,"viability, T/C",[10],118%
same,"viability, T/C","second compound 10 µM, first compound 0.000316 µM",101%
same,"viability, T/C","second compound 10 µM, first compound 0.001 µM",100%
same,"viability, T/C","second compound 10 µM, first compound 0.00316 µM",101%
same,"viability, T/C","second compound 10 µM, first compound 0.01 µM",87.9%
same,"viability, T/C",[11],99.5%
same,"viability, T/C",[12],121%
CNC(=O)c1ccc(N2C(=S)N(c3ccc(C#N)c(C(F)(F)F)c3)C(=O)C2(C)C)cc1F + CC(Nc1ncnc2nc[nH]c12)c1cc2cccc(Cl)c2c(=O)n1-c1ccccc1,IC50,second compound 0.0316 µM,> 10 µM
same,IC50,second compound 0.1 µM,> 10 µM
same,IC50,second compound 0.316 µM,> 10 µM
same,IC50,second compound 1 µM,> 10 µM
same,IC50,second compound 3.16 µM,> 10 µM
same,IC50,second compound 10 µM,> 10 µM
same,"viability, T/C",[1],111%
same,"viability, T/C",[2],93.6%
same,"viability, T/C","second compound 0.0316 µM, first compound 0.316 µM",96.3%
same,"viability, T/C","second compound 0.0316 µM, first compound 1 µM",85.3%
same,"viability, T/C","second compound 0.0316 µM, first compound 3.16 µM",85.1%
same,"viability, T/C","second compound 0.0316 µM, first compound 10 µM",75.7%
same,"viability, T/C",[3],92.6%
same,"viability, T/C",[4],92.5%
same,"viability, T/C","second compound 0.1 µM, first compound 0.316 µM",91.1%
same,"viability, T/C","second compound 0.1 µM, first compound 1 µM",91%
same,"viability, T/C","second compound 0.1 µM, first compound 3.16 µM",106%
same,"viability, T/C","second compound 0.1 µM, first compound 10 µM",88.3%
same,"viability, T/C",[5],138%
same,"viability, T/C",[6],100%
same,"viability, T/C","second compound 0.316 µM, first compound 0.316 µM",95.7%
same,"viability, T/C","second compound 0.316 µM, first compound 1 µM",111%
same,"viability, T/C","second compound 0.316 µM, first compound 3.16 µM",101%
same,"viability, T/C","second compound 0.316 µM, first compound 10 µM",89.5%
same,"viability, T/C",[7],95.5%
same,"viability, T/C",[8],87%
same,"viability, T/C","second compound 1 µM, first compound 0.316 µM",100%
same,"viability, T/C","second compound 1 µM, first compound 1 µM",105%
same,"viability, T/C","second compound 1 µM, first compound 3.16 µM",104%
same,"viability, T/C","second compound 1 µM, first compound 10 µM",114%
same,"viability, T/C",[9],111%
same,"viability, T/C",[10],93.9%
same,"viability, T/C","second compound 3.16 µM, first compound 0.316 µM",89.7%
same,"viability, T/C","second compound 3.16 µM, first compound 1 µM",106%
same,"viability, T/C","second compound 3.16 µM, first compound 3.16 µM",105%
same,"viability, T/C","second compound 3.16 µM, first compound 10 µM",93.3%
same,"viability, T/C",[11],89.4%
same,"viability, T/C",[12],108%
same,"viability, T/C","second compound 10 µM, first compound 0.316 µM",101%
same,"viability, T/C","second compound 10 µM, first compound 1 µM",102%
same,"viability, T/C","second compound 10 µM, first compound 3.16 µM",113%
same,"viability, T/C","second compound 10 µM, first compound 10 µM",90.5%
